According to patent publication US5750321A, “Process for buffering concentrated aqueous slurries” (priority 1997, dated 1998):
“Also recorded” adds a separate entry of the source. Read-outs that look alike come from different tables or passages of the source.

Experiments:
[1] = Buffering of S1 slurry: pH measured after additions of aqueous buffering salt; assay type: physicochemical; details: small additions of 0.1 mole/L salt to S1 slurry
Description: Measurements of pH were made using a Corning combination pH electrode, calibrated with VWR buffers of pH 4.0 and pH 7.0, using a Radiometer Copenhagen PHM63 pH meter. Equilibrated measurements were taken at about 24° C. while stirring the solutions or slurries.
About 97.0 g of the above described S1 slurry were placed in a 200 mL beaker upon a magnetic stirrer, and this slurry was moderately stirred using a magnetic stirring bar.
About 93.9 g of the above described S1 slurry were placed in a 200 mL beaker upon a magnetic stirrer, and was moderately stirred. […] Aliquots of 0.1 mole/L aqueous sodium citrate were added, and pH was recorded after each addition.
About 95.7 g of the above described S1 slurry were placed in a 200 mL beaker with moderate stirring. […] Aliquots of 0.1 mole/L aqueous sodium tartrate were added, and pH was recorded.
About 95.4 g of the above described S1 slurry were placed in a 200 mL beaker and was moderately stirred.
About 93.3 g of the above described S1 slurry were placed in a 200 mL beaker and stirred.

[2] = Langmuir 8, 291 (1992), cited from earlier work
[3] = Table 1; cited from earlier work
[4] = Electroacoustic sonic amplitude (ESA) electrokinetics of dye slurries as a function of pH; assay type: physicochemical
[5] = FD2 slurry without surfactant, Texter

CC(=O)O [sodium acetate]
effect on slurry pH / pH control (in words) [1]: increases the slurry pH to a significant extent; also recorded: significantly increases the slurry pH

CC1=NN(c2ccc(C(=O)O)cc2)C(=O)C1=Cc1c(C)nn(-c2ccc(C(=O)O)cc2)c1O [FD2]
pH interval of abrupt S-shaped ESA transition [2, 5]: 4-6 pH | predominately carboxy group-based surface pKa [2, 5]: about 5.0 | intrinsic electrokinetic charge ([2]; sign of charge, shown earlier by Texter): negative

O=S1(=O)CCCCN1
pKa at 25° C. [3]: 12.02

O=C([O-])c1ccccc1O.[Na+] [sodium salicylate]
effect on slurry pH / pH control (in words) [1]: provides some pH control

O=C(O)c1ccco1 [Furoic acid]
pKa at 25° C. [3]: 3.17

O=C(O)c1ccccc1 [sodium benzoate]
effect on slurry pH / pH control (in words) [1]: very effective at providing significant pH control at relatively low concentrations

CC1=NN(c2ccc(C(=O)O)cc2)C(=O)C1=CC=Cc1c(C)nn(-c2ccc(C(=O)O)cc2)c1O [FD1]
lowest apparent pKa relative to FD2 ([4]; FD1 slurries compared with FD2): three pH units lower | lowest apparent pKa ([4]; FD1 slurries without dispersing aid, FIG. 2): about 2 | solubility of the dye with increasing pH ([4]; above pH 5, upturn in ESA): marked increased solubility | intrinsic electrokinetic charge ([4]; sign of charge, ESA): negative
